Target: T1, EGFR (ErbB1) T790M L858R (Homo sapiens, UniProt P00533, L858R/T790M)
T1 construct: purchased Thermo Fisher Scientific (Life Technologies) SelectScreen
Experiment: SelectScreen Z'LYTE
Format: biochemical
How it was run: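 Percent values come from Thermo SelectScreen profiling of NU5455, combining activity and binding assays. CSF1R was run in Z'LYTE format at Km app ATP, and CAMK1 in Adapta format with ATP listed at 10.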

T1 sequence (P00533 25-1210 T790M/L858R): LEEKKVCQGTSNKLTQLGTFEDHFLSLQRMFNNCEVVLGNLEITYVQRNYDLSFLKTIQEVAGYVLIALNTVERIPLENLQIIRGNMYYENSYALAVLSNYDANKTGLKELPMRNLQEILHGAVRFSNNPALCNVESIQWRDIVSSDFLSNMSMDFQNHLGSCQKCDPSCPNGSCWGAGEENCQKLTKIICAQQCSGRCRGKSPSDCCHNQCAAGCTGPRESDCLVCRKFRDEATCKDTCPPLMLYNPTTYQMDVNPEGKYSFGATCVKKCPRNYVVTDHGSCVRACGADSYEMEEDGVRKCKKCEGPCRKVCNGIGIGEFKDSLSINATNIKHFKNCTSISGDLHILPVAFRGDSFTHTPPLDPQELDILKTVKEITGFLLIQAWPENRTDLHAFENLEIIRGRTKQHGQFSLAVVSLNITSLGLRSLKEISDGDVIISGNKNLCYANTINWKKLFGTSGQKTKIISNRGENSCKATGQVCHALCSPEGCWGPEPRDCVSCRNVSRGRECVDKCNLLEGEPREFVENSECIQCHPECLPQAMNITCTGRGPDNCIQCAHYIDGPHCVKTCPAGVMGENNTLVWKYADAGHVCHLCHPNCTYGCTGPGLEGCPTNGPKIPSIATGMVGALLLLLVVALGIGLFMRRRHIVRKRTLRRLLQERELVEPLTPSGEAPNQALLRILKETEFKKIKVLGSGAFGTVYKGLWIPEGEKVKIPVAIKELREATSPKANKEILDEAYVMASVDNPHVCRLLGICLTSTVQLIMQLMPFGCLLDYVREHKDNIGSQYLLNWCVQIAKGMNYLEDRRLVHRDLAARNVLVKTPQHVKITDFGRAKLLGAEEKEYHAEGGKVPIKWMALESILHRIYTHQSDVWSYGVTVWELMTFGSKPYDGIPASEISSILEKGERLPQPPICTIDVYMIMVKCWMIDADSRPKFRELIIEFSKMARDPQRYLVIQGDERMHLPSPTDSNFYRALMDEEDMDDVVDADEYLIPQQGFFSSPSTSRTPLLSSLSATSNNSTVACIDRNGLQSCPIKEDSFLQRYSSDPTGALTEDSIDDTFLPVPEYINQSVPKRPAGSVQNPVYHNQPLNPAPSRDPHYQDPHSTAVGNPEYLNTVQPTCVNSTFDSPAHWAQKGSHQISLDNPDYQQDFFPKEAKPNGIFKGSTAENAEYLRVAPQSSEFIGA

Compound: CN(C(=O)CN1CCOCC1)c1ccc2sc3c(-c4cccc5c(=O)cc(N6CC7CCC(C6)O7)oc45)cccc3c2c1 [NU5455]
- inhibition at 1 µM: -14.1%
